Experimental findings from ChEMBL document CHEMBL1909046, “DrugMatrix in vitro pharmacology data” are described below.

pIC50, pKi: −log10 of the molar value.
For pKi in this document: in other assays of this panel Not Active means under 50% inhibition at 10 µM.

5-hydroxytryptamine receptor 6, sequence (P50406 whole entry): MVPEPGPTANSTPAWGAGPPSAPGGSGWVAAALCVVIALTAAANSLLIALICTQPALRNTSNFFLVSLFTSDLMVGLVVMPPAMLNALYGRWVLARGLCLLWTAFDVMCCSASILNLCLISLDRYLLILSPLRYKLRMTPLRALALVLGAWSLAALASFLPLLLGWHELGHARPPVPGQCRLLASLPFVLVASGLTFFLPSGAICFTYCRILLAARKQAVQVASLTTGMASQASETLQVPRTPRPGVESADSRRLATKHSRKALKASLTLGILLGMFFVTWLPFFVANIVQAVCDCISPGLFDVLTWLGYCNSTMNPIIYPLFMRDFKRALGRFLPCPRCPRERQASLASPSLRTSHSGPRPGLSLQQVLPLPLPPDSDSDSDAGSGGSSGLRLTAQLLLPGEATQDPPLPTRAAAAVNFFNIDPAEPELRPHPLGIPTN
Beta-2 adrenergic receptor, sequence (P07550 whole entry): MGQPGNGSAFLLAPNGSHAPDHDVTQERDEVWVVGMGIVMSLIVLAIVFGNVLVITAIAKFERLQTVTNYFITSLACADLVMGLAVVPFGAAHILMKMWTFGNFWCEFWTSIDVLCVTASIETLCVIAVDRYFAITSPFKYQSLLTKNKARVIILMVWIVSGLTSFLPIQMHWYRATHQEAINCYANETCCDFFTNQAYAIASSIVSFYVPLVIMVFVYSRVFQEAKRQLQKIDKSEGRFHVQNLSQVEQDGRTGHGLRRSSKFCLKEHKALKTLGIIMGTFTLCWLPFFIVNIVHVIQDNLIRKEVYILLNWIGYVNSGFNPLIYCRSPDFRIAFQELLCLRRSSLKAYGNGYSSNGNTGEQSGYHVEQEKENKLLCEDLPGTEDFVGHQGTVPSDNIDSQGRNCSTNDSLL
Beta-3 adrenergic receptor, sequence (P13945 whole entry): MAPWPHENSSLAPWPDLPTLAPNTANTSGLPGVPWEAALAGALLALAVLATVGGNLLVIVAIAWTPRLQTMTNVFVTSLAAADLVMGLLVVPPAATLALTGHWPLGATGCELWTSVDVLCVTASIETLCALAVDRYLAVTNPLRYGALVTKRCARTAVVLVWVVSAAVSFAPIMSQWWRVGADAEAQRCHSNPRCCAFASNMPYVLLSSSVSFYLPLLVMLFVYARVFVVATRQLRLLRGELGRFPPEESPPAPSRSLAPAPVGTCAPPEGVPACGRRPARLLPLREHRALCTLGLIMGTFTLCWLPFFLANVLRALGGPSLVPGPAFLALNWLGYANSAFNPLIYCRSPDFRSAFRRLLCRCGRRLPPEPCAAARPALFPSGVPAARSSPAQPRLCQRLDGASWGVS

One assay deals with T1, Alpha-1D adrenergic receptor (Homo sapiens, UniProt P25100).
T1 sequence (P25100 whole entry): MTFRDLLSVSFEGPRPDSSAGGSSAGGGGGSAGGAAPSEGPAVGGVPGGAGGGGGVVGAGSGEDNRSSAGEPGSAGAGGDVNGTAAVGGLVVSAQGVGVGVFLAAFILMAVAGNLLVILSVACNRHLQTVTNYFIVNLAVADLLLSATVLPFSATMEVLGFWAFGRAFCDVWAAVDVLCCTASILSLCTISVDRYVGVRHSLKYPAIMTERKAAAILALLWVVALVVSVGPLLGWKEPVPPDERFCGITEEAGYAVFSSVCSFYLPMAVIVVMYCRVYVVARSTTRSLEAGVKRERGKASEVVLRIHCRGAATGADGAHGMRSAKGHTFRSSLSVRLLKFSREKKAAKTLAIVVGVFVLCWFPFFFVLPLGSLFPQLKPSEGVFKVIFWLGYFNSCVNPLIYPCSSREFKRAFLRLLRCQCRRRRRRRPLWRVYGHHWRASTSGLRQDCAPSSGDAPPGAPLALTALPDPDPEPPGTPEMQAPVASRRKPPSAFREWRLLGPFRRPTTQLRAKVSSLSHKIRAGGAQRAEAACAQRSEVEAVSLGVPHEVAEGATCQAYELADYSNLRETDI
Type of assay: cell membranes, HEK293, Membrane. The conditions noted are these: hek293.
On to `NC(=O)NO` [HYDROXYUREA], for which the IC50 entry was “Not Active”.

On to `CC(C)Cc1ccc(C(C)C(=O)O)cc1` (stereo not given) [IBUPROFEN], for which the IC50 result is recorded as “Not Active”.

Consider `COc1ccc2c(c1)c(CC(=O)O)c(C)n2C(=O)c1ccc(Cl)cc1` [INDOMETHACIN], for which the IC50 result was “Not Active”.

Staying with this assay, now noted: read-out: IC50.
As a reminder, the pIC50 is −log10 of the IC50, conventionally taken in molar units. For `CN(C)c1ccc(C(=C2C=CC(=[N+](C)C)C=C2)c2ccc(N(C)C)cc2)cc1.[Cl-]` [GENTIAN VIOLET], the pIC50 was 5.70.

The same assay, now with this note: read-out: Ki.
As a reminder, the pKi is −log10 of the Ki, conventionally taken in molar units. Take `CN(C)c1ccc(C(=C2C=CC(=[N+](C)C)C=C2)c2ccc(N(C)C)cc2)cc1.[Cl-]` [GENTIAN VIOLET]: the pKi was 6.01.

A further assay has as its target Beta-2 adrenergic receptor (Homo sapiens, UniProt P07550). The experiment in a line: DRUGMATRIX: Adrenergic beta2 radioligand binding (ligand: [3H] CGP-12177). The conditions noted are these: cho; Not Active = under 50% inhibition at 10 µM. It counts as cell membranes, Membrane.
`CN(C)c1ccc(C(=C2C=CC(=[N+](C)C)C=C2)c2ccc(N(C)C)cc2)cc1.[Cl-]` [GENTIAN VIOLET]: the IC50 result is listed as “Not Active”.

On to `NC(=O)NO` [HYDROXYUREA], for which the IC50 entry was “Not Active”.

With `CC(C)Cc1ccc(C(C)C(=O)O)cc1` (stereo not given) [IBUPROFEN], the IC50 result was “Not Active”.

For the compound `COc1ccc2c(c1)c(CC(=O)O)c(C)n2C(=O)c1ccc(Cl)cc1` [INDOMETHACIN], the IC50 entry is “Not Active”.

Another assay addresses Beta-3 adrenergic receptor (Homo sapiens, UniProt P13945). The experiment in a line: DRUGMATRIX: Adrenergic beta3 radioligand binding (ligand: [125I] Cyanopindolol). The conditions noted are these: hek293; Not Active = under 50% inhibition at 10 µM. It counts as cell membranes, Membrane.
Turning to `CN(C)c1ccc(C(=C2C=CC(=[N+](C)C)C=C2)c2ccc(N(C)C)cc2)cc1.[Cl-]` [GENTIAN VIOLET], the IC50 entry is “Not Active”.

As to `NC(=O)NO` [HYDROXYUREA], the IC50 entry is “Not Active”.

For `CC(C)Cc1ccc(C(C)C(=O)O)cc1` (stereo not given) [IBUPROFEN], the IC50 entry was “Not Active”.

Regarding `COc1ccc2c(c1)c(CC(=O)O)c(C)n2C(=O)c1ccc(Cl)cc1` [INDOMETHACIN], the IC50 entry was “Not Active”.

A further assay has as its target 5-hydroxytryptamine receptor 6 (Homo sapiens, UniProt P50406). It counts as cell membranes, HeLa, Membrane. The conditions noted are these: hela. Also: in other assays of this panel Not Active means under 50% inhibition at 10 µM.
Take `CN(C)c1ccc(C(=C2C=CC(=[N+](C)C)C=C2)c2ccc(N(C)C)cc2)cc1.[Cl-]` [GENTIAN VIOLET]: the IC50 result is listed as “Not Active”.

As to `NC(=O)NO` [HYDROXYUREA], the IC50 result is “Not Active”.

For the compound `CC(C)Cc1ccc(C(C)C(=O)O)cc1` (stereo not given) [IBUPROFEN], the IC50 entry is recorded as “Not Active”.

Consider `COc1ccc2c(c1)c(CC(=O)O)c(C)n2C(=O)c1ccc(Cl)cc1` [INDOMETHACIN], for which the IC50 result is recorded as “Not Active”.

The target of the next assay is C-C chemokine receptor type 5 (Homo sapiens, UniProt P51681). Type of assay: cell membranes, HEK293, Membrane. The conditions noted are these: hek293. Also: in other assays of this panel Not Active means under 50% inhibition at 10 µM.
C-C chemokine receptor type 5, sequence (P51681 whole entry): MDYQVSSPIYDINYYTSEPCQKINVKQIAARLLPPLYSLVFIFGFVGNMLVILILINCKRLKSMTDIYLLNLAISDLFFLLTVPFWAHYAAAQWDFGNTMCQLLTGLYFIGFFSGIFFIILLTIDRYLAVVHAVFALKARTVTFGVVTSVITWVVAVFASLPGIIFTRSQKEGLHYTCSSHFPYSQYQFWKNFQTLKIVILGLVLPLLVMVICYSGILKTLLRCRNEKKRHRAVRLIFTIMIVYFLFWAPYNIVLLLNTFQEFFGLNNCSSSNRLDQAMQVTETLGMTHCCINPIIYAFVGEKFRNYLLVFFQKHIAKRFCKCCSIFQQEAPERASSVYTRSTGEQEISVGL
In the case of `CN(C)c1ccc(C(=C2C=CC(=[N+](C)C)C=C2)c2ccc(N(C)C)cc2)cc1.[Cl-]` [GENTIAN VIOLET], the IC50 entry is “Not Active”.

On to `NC(=O)NO` [HYDROXYUREA], for which the IC50 entry is on record as “Not Active”.

As to `CC(C)Cc1ccc(C(C)C(=O)O)cc1` (stereo not given) [IBUPROFEN], the IC50 entry was “Not Active”.

`COc1ccc2c(c1)c(CC(=O)O)c(C)n2C(=O)c1ccc(Cl)cc1` [INDOMETHACIN]: the IC50 entry is on record as “Not Active”.

Another assay deals with T2, Muscarinic acetylcholine receptor M5 (Homo sapiens, UniProt P08912).
T2 sequence (P08912 whole entry): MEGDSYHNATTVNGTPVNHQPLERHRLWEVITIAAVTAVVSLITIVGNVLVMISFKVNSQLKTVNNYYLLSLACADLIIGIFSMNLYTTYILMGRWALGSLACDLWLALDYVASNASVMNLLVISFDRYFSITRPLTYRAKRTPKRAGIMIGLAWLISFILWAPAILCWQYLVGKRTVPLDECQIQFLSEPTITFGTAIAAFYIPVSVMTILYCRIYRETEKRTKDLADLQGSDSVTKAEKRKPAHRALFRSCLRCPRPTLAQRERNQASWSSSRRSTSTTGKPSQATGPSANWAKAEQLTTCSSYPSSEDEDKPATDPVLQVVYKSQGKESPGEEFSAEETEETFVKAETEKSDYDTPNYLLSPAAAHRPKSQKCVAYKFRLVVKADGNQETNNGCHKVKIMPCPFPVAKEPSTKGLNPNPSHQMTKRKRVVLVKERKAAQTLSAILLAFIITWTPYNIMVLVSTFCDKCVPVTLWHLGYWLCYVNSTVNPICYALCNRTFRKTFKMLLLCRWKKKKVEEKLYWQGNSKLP
Type of assay: cell membranes, CHO-K1, Membrane. The conditions noted are these: cho-k1.
With `NC(=O)NO` [HYDROXYUREA], the IC50 result is given as “Not Active”.

`CC(C)Cc1ccc(C(C)C(=O)O)cc1` (stereo not given) [IBUPROFEN]: the IC50 result was “Not Active”.

As for `COc1ccc2c(c1)c(CC(=O)O)c(C)n2C(=O)c1ccc(Cl)cc1` [INDOMETHACIN], the IC50 entry is “Not Active”.

The assay is the same for the next values; noted with them: read-out: IC50.
For the compound `CN(C)c1ccc(C(=C2C=CC(=[N+](C)C)C=C2)c2ccc(N(C)C)cc2)cc1.[Cl-]` [GENTIAN VIOLET], the pIC50 was 6.27.

The assay is the same for the next values; noted with them: read-out: Ki.
For `CN(C)c1ccc(C(=C2C=CC(=[N+](C)C)C=C2)c2ccc(N(C)C)cc2)cc1.[Cl-]` [GENTIAN VIOLET], the pKi was 6.42.

In a further assay the target is T3, Nitric oxide synthase, inducible (Mus musculus, UniProt P29477).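 Also: inhibition of iNOS enzyme activity measured with L-arginine as substrate; in other assays of this panel Not Active means under 50% inhibition at 10 µM.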
T3 sequence (P29477 whole entry): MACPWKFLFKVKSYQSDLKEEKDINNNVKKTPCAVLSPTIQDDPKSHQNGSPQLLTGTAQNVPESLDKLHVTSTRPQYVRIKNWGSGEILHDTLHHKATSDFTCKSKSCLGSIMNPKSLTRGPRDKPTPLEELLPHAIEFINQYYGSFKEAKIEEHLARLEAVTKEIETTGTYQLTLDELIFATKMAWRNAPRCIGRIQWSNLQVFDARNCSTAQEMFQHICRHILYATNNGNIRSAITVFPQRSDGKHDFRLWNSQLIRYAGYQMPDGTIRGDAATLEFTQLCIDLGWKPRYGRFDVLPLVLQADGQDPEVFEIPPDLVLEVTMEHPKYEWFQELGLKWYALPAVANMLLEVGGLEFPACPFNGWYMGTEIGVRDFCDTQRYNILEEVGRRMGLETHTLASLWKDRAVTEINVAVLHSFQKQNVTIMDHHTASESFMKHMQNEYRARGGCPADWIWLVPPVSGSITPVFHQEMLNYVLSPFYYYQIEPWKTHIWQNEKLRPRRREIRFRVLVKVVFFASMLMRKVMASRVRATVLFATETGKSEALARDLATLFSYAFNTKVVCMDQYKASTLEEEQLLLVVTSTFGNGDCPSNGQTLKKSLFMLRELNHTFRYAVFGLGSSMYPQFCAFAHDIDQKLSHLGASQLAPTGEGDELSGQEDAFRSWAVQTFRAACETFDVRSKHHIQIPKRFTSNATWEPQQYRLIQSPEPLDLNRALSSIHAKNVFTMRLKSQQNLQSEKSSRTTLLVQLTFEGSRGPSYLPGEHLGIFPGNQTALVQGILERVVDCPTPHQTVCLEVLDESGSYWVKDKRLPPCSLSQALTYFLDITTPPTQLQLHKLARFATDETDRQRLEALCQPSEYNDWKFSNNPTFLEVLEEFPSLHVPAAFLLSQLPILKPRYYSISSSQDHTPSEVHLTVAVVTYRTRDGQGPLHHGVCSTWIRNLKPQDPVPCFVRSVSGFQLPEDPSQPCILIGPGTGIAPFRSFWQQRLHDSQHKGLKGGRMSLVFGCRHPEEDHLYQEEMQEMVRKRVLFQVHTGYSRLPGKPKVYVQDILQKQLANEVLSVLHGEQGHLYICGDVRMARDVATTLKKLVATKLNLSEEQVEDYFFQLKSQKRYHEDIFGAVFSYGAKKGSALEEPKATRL
On the set-up: species or system Escherichia coli.
Conditions: not given
Turning to `CN(C)c1ccc(C(=C2C=CC(=[N+](C)C)C=C2)c2ccc(N(C)C)cc2)cc1.[Cl-]` [GENTIAN VIOLET], the IC50 entry was “Not Active”.

For `NC(=O)NO` [HYDROXYUREA], the IC50 result is “Not Active”.

For `CC(C)Cc1ccc(C(C)C(=O)O)cc1` (stereo not given) [IBUPROFEN], the IC50 entry is given as “Not Active”.

In the case of `COc1ccc2c(c1)c(CC(=O)O)c(C)n2C(=O)c1ccc(Cl)cc1` [INDOMETHACIN], the IC50 entry is reported as “Not Active”.
